Reference: EP1143981B1, “USE OF N-GLYCOLNEURAMINIC ACID AND ITS DERIVATIVES FOR THE MANUFACTURE OF A MEDICAMENT FOR THE TREATMENT OF HIV INFECTIONS” (Glukor, Inc., priority 1998, dated 2000)
Where “and” joins values, the source holds several entries; their conditions need not be identical. Equal entries are not always repeated.

Columns and labels:
HIV-1 IIIB = assay: HIV-1 P24 output, test solutions added post infection; type: cell-based; details: Human immunodeficiency virus 1, IIIB; endpoint of the inhibition; read-out: lowest effective concentration for inhibition of HIV p24 output
Protocol: In addition, a similar experiment was performed, except that test solutions were added post infection, at the time of plating into the triplicate wells.

HIV-1ROJO = assay: Reverse transcriptase activity assay in infected PBMCs; type: cell-based; details: for RT activity % VC: % virus control; for RT Activity (cpm) / Reverse Transcriptase (RT) Activity (cpm): single samples; for IC50: Human immunodeficiency virus 1, PBMC
Excerpt: PBMCs were isolated from fresh human blood obtained commercially from the American Red Cross (Baltimore, Maryland). CEM-SS cells were obtained from the NIH AIDS reagent program. The low passage, lymphotropic clinical isolate ROJO was obtained from a pediatric patient attending the AIDS Clinic at the University of Alabama at Birmingham. Phytohemagglutinin (PHA-P) was obtained from Sigma Chemical Co. (St. Louis, MO) and recombinant IL-2 was obtained from Amgen (San Francisco, CA). As a positive control for antiviral assays, AZT was obtained from the NIH AIDS Reagent Program. HIV-1RF also was obtained from the NIH AIDS reagent program. Tritiated thymidine triphosphate was obtained from New England Nuclear (Boston, MA). Each plate in each experiment contained cell control wells (cells only), virus control wells (cells plus virus), drug toxicity control wells (cells plus drug only), drug colorimetric control wells (drug only) as well as experimental wells (drug plus cells plus virus).
Fresh human PBMCs were isolated from voluntary Red Cross donors, seronegative for HIV and HBV. Leukophoresed blood was diluted 1:1 with Dulbecco's PBS, layered over 14 mL of Ficoll-Hypaque density gradient in a 50mL centrifuge and then centrifuged for 30 minutes at 600 x g. Banded PBMCs were gently aspirated from the resulting interface and subsequently washed twice with PBS by low speed centrifugation. […] PBMCs were maintained in this medium at a concentration of 1-2 x 10^6 cells/mL with bi-weekly medium changes until used in the assay.
(§1) For the standard PBMC assay, PHA-P stimulated cells from at least two normal donors were pooled, diluted in fresh medium to a final concentration of 1 x 10^6 cells/mL, and plated in the interior wells of a 96 well round bottom microplate at 50 µL/well (5 x 10^4 cells/well). Test drug dilutions were prepared at a 2X concentration in microfuge tubes and 100 µL of each concentration was placed in appropriate wells in a standard format. A predetermined dilution of virus stock was placed in each test well (50 µL, final MOI ≅ 0.1). Wells with cells and virus alone were used for virus control. Separate plates were prepared identically without virus for drug cytotoxicity studies using an XTT assay system. The PBMC cultures were maintained for seven days following infection, at which time cell-free supernatant samples were collected and assayed for reverse transcriptase activity as described below.
Virus Preparation: Pre-tittered aliquots of HIV-1ROJO and HIV-1RF were removed from the freezer (-80°C) and thawed to room temperature in a biological safety cabinet. The virus was resuspended and diluted into tissue culture medium such that the amount of virus added to each well in a volume of 50 µL will be the amount determined to give complete cell killing at 6 days post-infection.
Reverse Transcriptase Activity Assay: A microtiter based reverse transcriptase (RT) reaction was utilized as described by Buckheit et al., (1991), AIDS Research and Human Retroviruses, 7:295-302. Tritiated thymidine triphosphate (^3H-TTP) was suspended in distilled H2O at 5 Ci/mL. Poly rA and oligo dT were prepared as a stock solution which was kept at -20°C. RT reaction buffer was prepared fresh on a daily basis and contained 125 µL 1M EGTA, 125 µL dH2O, 110 µL 10% SDS, 50 µL 1M Tris (pH 7.4), 50 µL 1M DTT, and 40 µL 1M MgCl2. These three solutions were mixed together in a ratio of 2 parts ^3H-TTP, 1 part poly rA:oligo dT, and 1 part reaction buffer. Ten microliters of this reaction mixture were placed in a round bottom microtiter plate and 15 µL of virus containing supernatant were added and mixed. The plate was incubated at 37°C in a water bath with a solid support to prevent submersion of the plate and incubated for 60 minutes.

HIV-1IIIB = assay: PBMC cell-based anti-HIV assay; details: PBMCs; laboratory strain
Protocol: as §1
Reverse Transcriptase Activity Assay: A microtiter based reverse transcriptase (RT) reaction was utilized as described by Buckheit et al., (1991), AIDS Research and Human Retroviruses, 7:295-302. Tritiated thymidine triphosphate (^3H-TTP) was suspended in distilled H2O at 5 Ci/mL. […] Opti-Fluor-O (Packard) was added to each sample and incorporated radioactivity was quantified utilizing a Wallac 1450 MicroBeta Plus liquid scintillation counter. […]

[1] = 0.0001 mM, simultaneously exposed to drug and HIV
[2] = 0.00032 mM, 2-hour pretreatment
[3] = 0.00032 mM, simultaneously exposed to drug and HIV
[4] = 0.001 mM, simultaneously exposed to drug and HIV
[5] = 0.0032 mM, simultaneously exposed to drug and HIV
[6] = 0.01 mM, simultaneously exposed to drug and HIV
[7] = 0.032 mM, simultaneously exposed to drug and HIV
[8] = 0.1 mM, simultaneously exposed to drug and HIV
[9] = 0.32 mM, simultaneously exposed to drug and HIV
[10] = 1 mM, simultaneously exposed to drug and HIV

O=C(CO)N[C@H]1[C@H]([C@H](O)[C@H](O)CO)OC(O)(C(=O)O)C[C@@H]1O (stereo partly drawn) [N-glycolylneuraminic acid]
minimal effective concentration (HIV-1 IIIB): 0.003 µg/mL | Reverse Transcriptase (RT) Activity (cpm), Mean (HIV-1ROJO; 0.0001 mM, 2-hour pretreatment): 2763.7 cpm | RT activity % VC (HIV-1ROJO; 0.0001 mM, 2-hour pretreatment): 134.2% | RT Activity (cpm), Mean (HIV-1ROJO; [1]): 2348.3 cpm | RT activity % VC (HIV-1ROJO; [1]): 78.5% | RT Activity (cpm) (HIV-1ROJO; [1]): 2423.0 cpm and 2253.0 cpm and 2369.0 cpm | Reverse Transcriptase (RT) Activity (cpm), Mean (HIV-1ROJO; [2]): 2015.3 cpm | RT activity % VC (HIV-1ROJO; [2]): 97.8% | RT Activity (cpm), Mean (HIV-1ROJO; [3]): 2795.0 cpm | RT activity % VC (HIV-1ROJO; [3]): 93.4% | Reverse Transcriptase (RT) Activity (cpm), Mean (HIV-1ROJO; 0.001 mM, 2-hour pretreatment): 1867.0 cpm | RT activity % VC (HIV-1ROJO; 0.001 mM, 2-hour pretreatment): 90.6% | RT Activity (cpm), Mean (HIV-1ROJO; [4]): 3108.7 cpm | RT activity % VC (HIV-1ROJO; [4]): 103.9% | Reverse Transcriptase (RT) Activity (cpm), Mean (HIV-1ROJO; 0.0032 mM, 2-hour pretreatment): 2529.0 cpm | RT activity % VC (HIV-1ROJO; 0.0032 mM, 2-hour pretreatment): 122.8% | Reverse Transcriptase (RT) Activity (cpm) (HIV-1ROJO; 0.0032 mM, 2-hour pretreatment): 2381.0 cpm and 3368.0 cpm and 1838.0 cpm | RT Activity (cpm), Mean (HIV-1ROJO; [5]): 2892.7 cpm | RT activity % VC (HIV-1ROJO; [5]): 96.7% | Reverse Transcriptase (RT) Activity (cpm), Mean (HIV-1ROJO; 0.01 mM, 2-hour pretreatment): 951.3 cpm | RT activity % VC (HIV-1ROJO; 0.01 mM, 2-hour pretreatment): 46.2% | RT Activity (cpm), Mean (HIV-1ROJO; [6]): 2163.3 cpm | RT activity % VC (HIV-1ROJO; [6]): 72.3% | RT Activity (cpm) (HIV-1ROJO; [6]): 2284.0 cpm and 2280.0 cpm and 1926.0 cpm | Reverse Transcriptase (RT) Activity (cpm), Mean (HIV-1ROJO; 0.032 mM, 2-hour pretreatment): 561.7 cpm | RT activity % VC (HIV-1ROJO; 0.032 mM, 2-hour pretreatment): 27.3% | RT Activity (cpm), Mean (HIV-1ROJO; [7]): 1867.3 cpm | RT activity % VC (HIV-1ROJO; [7]): 62.4% | RT Activity (cpm) (HIV-1ROJO; [7]): 1814.0 cpm and 2094.0 cpm and 1694.0 cpm | Reverse Transcriptase (RT) Activity (cpm), Mean (HIV-1ROJO; 0.1 mM, 2-hour pretreatment): 459.0 cpm | RT activity % VC (HIV-1ROJO; 0.1 mM, 2-hour pretreatment): 22.3% | RT Activity (cpm), Mean (HIV-1ROJO; [8]): 906.3 cpm | RT activity % VC (HIV-1ROJO; [8]): 30.3% | Reverse Transcriptase (RT) Activity (cpm), Mean (HIV-1ROJO; 0.32 mM, 2-hour pretreatment): 146.7 cpm | RT activity % VC (HIV-1ROJO; 0.32 mM, 2-hour pretreatment): 7.1% | Reverse Transcriptase (RT) Activity (cpm) (HIV-1ROJO; 0.32 mM, 2-hour pretreatment): 196.0 cpm and 140.0 cpm and 104.0 cpm | RT Activity (cpm), Mean (HIV-1ROJO; [9]): 102.7 cpm | RT Activity (cpm) (HIV-1ROJO; [9]): 132.0 cpm and 108.0 cpm and 68.0 cpm | Reverse Transcriptase (RT) Activity (cpm), Mean (HIV-1ROJO; 1 mM, 2-hour pretreatment): 76.0 cpm | RT activity % VC (HIV-1ROJO; 1 mM, 2-hour pretreatment): 3.7% | Reverse Transcriptase (RT) Activity (cpm) (HIV-1ROJO; 1 mM, 2-hour pretreatment): 72.0 cpm and 68.0 cpm and 88.0 cpm | RT Activity (cpm), Mean (HIV-1ROJO; [10]): 204 cpm | RT activity % VC (HIV-1ROJO; [10]): 6.8% | IC50 (HIV-1ROJO; PBMCs, 2hr pretreatment): ~10 µM | IC50 (HIV-1ROJO; PBMCs, simultaneously exposed to drug and HIV, without a pretreatment): ~58 µM | TI (HIV-1ROJO; PBMCs, simultaneously exposed to drug and HIV): > 17.25 | anti-HIV activity (HIV-1ROJO; PBMCs, with and without a 2hr pretreatment of the cells): active | anti-HIV activity (HIV-1IIIB): inactive
